Measurements: ChEMBL document CHEMBL1127286, “Quantitative structure-activity relationships study of endothelin-1 analogs” (Bioorg Med Chem Lett, 1994)

What was measured:
[1] = target: T1, Endothelin-1 receptor (Rattus norvegicus) (UniProt P26684); assay: Concentration required to produce 50% inhibition of binding against ET A receptor obtained from rat thoracic aortic membrane
T1 sequence (whole entry): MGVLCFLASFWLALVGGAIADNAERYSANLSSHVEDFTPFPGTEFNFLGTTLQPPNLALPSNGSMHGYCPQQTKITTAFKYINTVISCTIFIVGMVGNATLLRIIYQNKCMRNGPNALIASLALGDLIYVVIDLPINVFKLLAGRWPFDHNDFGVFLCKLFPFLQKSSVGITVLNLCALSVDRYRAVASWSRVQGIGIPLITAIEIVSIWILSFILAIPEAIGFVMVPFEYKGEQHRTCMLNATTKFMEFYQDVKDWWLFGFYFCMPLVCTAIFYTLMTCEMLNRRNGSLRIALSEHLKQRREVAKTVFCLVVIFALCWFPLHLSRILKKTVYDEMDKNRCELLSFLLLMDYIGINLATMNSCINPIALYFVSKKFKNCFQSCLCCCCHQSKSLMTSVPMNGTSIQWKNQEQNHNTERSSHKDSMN

[2] = target: T2, Endothelin receptor type B (Rattus norvegicus) (UniProt P21451); assay: Concentration required to produce 50% inhibition of binding against ET B receptor obtained from rat brain membrane
T2 sequence (whole entry): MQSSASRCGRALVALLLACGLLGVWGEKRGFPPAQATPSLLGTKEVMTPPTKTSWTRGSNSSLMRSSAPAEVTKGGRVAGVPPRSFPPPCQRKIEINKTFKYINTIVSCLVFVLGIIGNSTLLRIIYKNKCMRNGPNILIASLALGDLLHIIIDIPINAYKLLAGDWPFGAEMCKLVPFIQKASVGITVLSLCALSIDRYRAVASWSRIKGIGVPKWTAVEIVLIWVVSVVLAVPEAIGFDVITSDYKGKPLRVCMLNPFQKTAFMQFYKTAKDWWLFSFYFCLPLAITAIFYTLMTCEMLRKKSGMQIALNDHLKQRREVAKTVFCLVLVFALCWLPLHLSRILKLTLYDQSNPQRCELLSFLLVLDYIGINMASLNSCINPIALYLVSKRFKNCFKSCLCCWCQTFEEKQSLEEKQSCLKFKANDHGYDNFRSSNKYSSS

| SMILES | pIC50 [1] | pIC50 [2] |
| --- | --- | --- |
| CC[C@@H](C)[C@H](NC(=O)[C@H](CC(=O)O)NC(=O)[C@H](CC(C)C)NC(=O)[C@H](Cc1c[nH]cn1)NC(=O)[C@H](CS)NC(=O)[C@H](Cc1ccccc1)NC(=O)[C@H](Cc1ccc(O)cc1)NC(=O)[C@@H](NC(=O)[C@H](CS)NC(=O)[C@H](CCC(=O)O)NC(=O)[C@H](CCCCN)NC(=O)[C@H](CC(=O)O)NC(=O)[C@H](CCSC)NC(=O)[C@H](CC(C)C)NC(=O)[C@H](CO)NC(=O)[C@H](CO)NC(=O)[C@H](CS)NC(=O)[C@H](CO)NC(=O)[C@@H](N)CS)C(C)C)C(=O)N[C@@H](C(=O)N[C@@H](Cc1c[nH]c2ccccc12)C(=O)O)[C@H](C)CC | 7.59 |  |
| CC[C@@H](C)[C@H](NC(=O)[C@H](CC(=O)O)NC(=O)[C@H](CC(C)C)NC(=O)[C@H](Cc1c[nH]cn1)NC(=O)[C@H](CS)NC(=O)[C@H](Cc1ccccc1)NC(=O)[C@H](Cc1ccc(O)cc1)NC(=O)[C@@H](NC(=O)[C@H](CS)NC(=O)[C@H](CCC(=O)O)NC(=O)[C@H](CCCCN)NC(=O)[C@H](CC(=O)O)NC(=O)[C@H](CCSC)NC(=O)[C@H](CC(C)C)NC(=O)[C@H](CO)NC(=O)[C@H](CO)NC(=O)[C@H](CS)NC(=O)[C@H](CO)NC(=O)[C@@H](N)CS)C(C)C)C(=O)N[C@H](Cc1ccccc1)C(=O)N[C@@H](Cc1c[nH]c2ccccc12)C(=O)O | 6.07 | 8.6 |
| CC[C@@H](C)[C@H](NC(=O)[C@H](CC(=O)O)NC(=O)[C@H](CC(C)C)NC(=O)[C@H](Cc1c[nH]cn1)NC(=O)[C@H](CS)NC(=O)[C@H](Cc1ccccc1)NC(=O)[C@H](Cc1ccc(O)cc1)NC(=O)[C@@H](NC(=O)[C@H](CS)NC(=O)[C@H](CCC(=O)O)NC(=O)[C@H](CCCCN)NC(=O)[C@H](CC(=O)O)NC(=O)[C@H](CCSC)NC(=O)[C@H](CC(C)C)NC(=O)[C@H](CO)NC(=O)[C@H](CO)NC(=O)[C@H](CS)NC(=O)[C@H](CO)NC(=O)[C@@H](N)CS)C(C)C)C(=O)N[C@@H](Cc1c[nH]c2ccccc12)C(=O)N[C@@H](Cc1c[nH]c2ccccc12)C(=O)O | 6.71 | 9.77 |
| CC[C@@H](C)[C@H](NC(=O)[C@H](CC(=O)O)NC(=O)[C@H](CC(C)C)NC(=O)[C@H](Cc1c[nH]cn1)NC(=O)[C@H](CS)NC(=O)[C@H](Cc1ccccc1)NC(=O)[C@H](Cc1ccc(O)cc1)NC(=O)[C@@H](NC(=O)[C@H](CS)NC(=O)[C@H](CCC(=O)O)NC(=O)[C@H](CCCCN)NC(=O)[C@H](CC(=O)O)NC(=O)[C@H](CCSC)NC(=O)[C@H](CC(C)C)NC(=O)[C@H](CO)NC(=O)[C@H](CO)NC(=O)[C@H](CS)NC(=O)[C@H](CO)NC(=O)[C@@H](N)CS)C(C)C)C(=O)N[C@@H](C(=O)N[C@@H](Cc1c[nH]c2ccccc12)C(=O)O)C1CCCCC1 | 7.04 | 9.59 |
| CC[C@@H](C)[C@H](NC(=O)[C@H](CC(=O)O)NC(=O)[C@H](CC(C)C)NC(=O)[C@H](Cc1c[nH]cn1)NC(=O)[C@H](CS)NC(=O)[C@H](Cc1ccccc1)NC(=O)[C@H](Cc1ccc(O)cc1)NC(=O)[C@@H](NC(=O)[C@H](CS)NC(=O)[C@H](CCC(=O)O)NC(=O)[C@H](CCCCN)NC(=O)[C@H](CC(=O)O)NC(=O)[C@H](CCSC)NC(=O)[C@H](CC(C)C)NC(=O)[C@H](CO)NC(=O)[C@H](CO)NC(=O)[C@H](CS)NC(=O)[C@H](CO)NC(=O)[C@@H](N)CS)C(C)C)C(=O)N[C@H](C(=O)N[C@@H](Cc1c[nH]c2ccccc12)C(=O)O)C1CCCCC1 | 9.88 | 10 |
| CC[C@@H](C)[C@H](NC(=O)[C@H](CC(=O)O)NC(=O)[C@H](CC(C)C)NC(=O)[C@H](Cc1c[nH]cn1)NC(=O)[C@H](CS)NC(=O)[C@H](Cc1ccccc1)NC(=O)[C@H](Cc1ccc(O)cc1)NC(=O)[C@@H](NC(=O)[C@H](CS)NC(=O)[C@H](CCC(=O)O)NC(=O)[C@H](CCCCN)NC(=O)[C@H](CC(=O)O)NC(=O)[C@H](CCSC)NC(=O)[C@H](CC(C)C)NC(=O)[C@H](CO)NC(=O)[C@H](CO)NC(=O)[C@H](CS)NC(=O)[C@H](CO)NC(=O)[C@@H](N)CS)C(C)C)C(=O)N[C@H](C(=O)N[C@@H](Cc1c[nH]c2ccccc12)C(=O)O)[C@H](C)CC | 9.93 |  |
| CC[C@@H](C)[C@H](NC(=O)[C@H](CC(=O)O)NC(=O)[C@H](CC(C)C)NC(=O)[C@H](Cc1c[nH]cn1)NC(=O)[C@H](CS)NC(=O)[C@H](Cc1ccccc1)NC(=O)[C@H](Cc1ccc(O)cc1)NC(=O)[C@@H](NC(=O)[C@H](CS)NC(=O)[C@H](CCC(=O)O)NC(=O)[C@H](CCCCN)NC(=O)[C@H](CC(=O)O)NC(=O)[C@H](CCSC)NC(=O)[C@H](CC(C)C)NC(=O)[C@H](CO)NC(=O)[C@H](CO)NC(=O)[C@H](CS)NC(=O)[C@H](CO)NC(=O)[C@@H](N)CS)C(C)C)C(=O)N[C@@H](C(=O)N[C@@H](Cc1c[nH]c2ccccc12)C(=O)O)c1ccccc1 | 6.85 | 8.6 |
| CC[C@@H](C)[C@H](NC(=O)[C@H](CC(=O)O)NC(=O)[C@H](CC(C)C)NC(=O)[C@H](Cc1c[nH]cn1)NC(=O)[C@H](CS)NC(=O)[C@H](Cc1ccccc1)NC(=O)[C@H](Cc1ccc(O)cc1)NC(=O)[C@@H](NC(=O)[C@H](CS)NC(=O)[C@H](CCC(=O)O)NC(=O)[C@H](CCCCN)NC(=O)[C@H](CC(=O)O)NC(=O)[C@H](CCSC)NC(=O)[C@H](CC(C)C)NC(=O)[C@H](CO)NC(=O)[C@H](CO)NC(=O)[C@H](CS)NC(=O)[C@H](CO)NC(=O)[C@@H](N)CS)C(C)C)C(=O)N[C@H](CCC(N)=O)C(=O)N[C@@H](Cc1c[nH]c2ccccc12)C(=O)O | 5.27 | 5.59 |

Other lines, results leading:

| pIC50 [1] | pIC50 [2] | SMILES |
| --- | --- | --- |
| 7.97 | 9.94 | CC[C@@H](C)[C@H](NC(=O)[C@H](CC(=O)O)NC(=O)[C@H](CC(C)C)NC(=O)[C@H](Cc1c[nH]cn1)NC(=O)[C@H](CS)NC(=O)[C@H](Cc1ccccc1)NC(=O)[C@H](Cc1ccc(O)cc1)NC(=O)[C@@H](NC(=O)[C@H](CS)NC(=O)[C@H](CCC(=O)O)NC(=O)[C@H](CCCCN)NC(=O)[C@H](CC(=O)O)NC(=O)[C@H](CCSC)NC(=O)[C@H](CC(C)C)NC(=O)[C@H](CO)NC(=O)[C@H](CO)NC(=O)[C@H](CS)NC(=O)[C@H](CO)NC(=O)[C@@H](N)CS)C(C)C)C(=O)N[C@H](CC(C)C)C(=O)N[C@@H](Cc1c[nH]c2ccccc12)C(=O)O |
| 5.77 | 7.96 | CC[C@@H](C)[C@H](NC(=O)[C@H](CC(=O)O)NC(=O)[C@H](CC(C)C)NC(=O)[C@H](Cc1c[nH]cn1)NC(=O)[C@H](CS)NC(=O)[C@H](Cc1ccccc1)NC(=O)[C@H](Cc1ccc(O)cc1)NC(=O)[C@@H](NC(=O)[C@H](CS)NC(=O)[C@H](CCC(=O)O)NC(=O)[C@H](CCCCN)NC(=O)[C@H](CC(=O)O)NC(=O)[C@H](CCSC)NC(=O)[C@H](CC(C)C)NC(=O)[C@H](CO)NC(=O)[C@H](CO)NC(=O)[C@H](CS)NC(=O)[C@H](CO)NC(=O)[C@@H](N)CS)C(C)C)C(=O)N[C@H](C)C(=O)N[C@@H](Cc1c[nH]c2ccccc12)C(=O)O |
| 7.53 | 9.4 | CC[C@@H](C)[C@H](NC(=O)[C@H](CC(=O)O)NC(=O)[C@H](CC(C)C)NC(=O)[C@H](Cc1c[nH]cn1)NC(=O)[C@H](CS)NC(=O)[C@H](Cc1ccccc1)NC(=O)[C@H](Cc1ccc(O)cc1)NC(=O)[C@@H](NC(=O)[C@H](CS)NC(=O)[C@H](CCC(=O)O)NC(=O)[C@H](CCCCN)NC(=O)[C@H](CC(=O)O)NC(=O)[C@H](CCSC)NC(=O)[C@H](CC(C)C)NC(=O)[C@H](CO)NC(=O)[C@H](CO)NC(=O)[C@H](CS)NC(=O)[C@H](CO)NC(=O)[C@@H](N)CS)C(C)C)C(=O)N[C@@H](C)C(=O)N[C@@H](Cc1c[nH]c2ccccc12)C(=O)O |
| 9 | 9.05 | CC[C@@H](C)[C@H](NC(=O)[C@H](CC(=O)O)NC(=O)[C@H](CC(C)C)NC(=O)[C@H](Cc1c[nH]cn1)NC(=O)[C@H](CS)NC(=O)[C@H](Cc1ccccc1)NC(=O)[C@H](Cc1ccc(O)cc1)NC(=O)[C@@H](NC(=O)[C@H](CS)NC(=O)[C@H](CCC(=O)O)NC(=O)[C@H](CCCCN)NC(=O)[C@H](CC(=O)O)NC(=O)[C@H](CCSC)NC(=O)[C@H](CC(C)C)NC(=O)[C@H](CO)NC(=O)[C@H](CO)NC(=O)[C@H](CS)NC(=O)[C@H](CO)NC(=O)[C@@H](N)CS)C(C)C)C(=O)N[C@@H](C(=O)N[C@@H](Cc1c[nH]c2ccccc12)C(=O)O)C(C)C |
| 7.6 | 10 | CCC[C@@H](NC(=O)[C@@H](NC(=O)[C@H](CC(=O)O)NC(=O)[C@H](CC(C)C)NC(=O)[C@H](Cc1c[nH]cn1)NC(=O)[C@H](CS)NC(=O)[C@H](Cc1ccccc1)NC(=O)[C@H](Cc1ccc(O)cc1)NC(=O)[C@@H](NC(=O)[C@H](CS)NC(=O)[C@H](CCC(=O)O)NC(=O)[C@H](CCCCN)NC(=O)[C@H](CC(=O)O)NC(=O)[C@H](CCSC)NC(=O)[C@H](CC(C)C)NC(=O)[C@H](CO)NC(=O)[C@H](CO)NC(=O)[C@H](CS)NC(=O)[C@H](CO)NC(=O)[C@@H](N)CS)C(C)C)[C@H](C)CC)C(=O)N[C@@H](Cc1c[nH]c2ccccc12)C(=O)O |
